US11753404B2, “Aminothiazole compounds as c-Kit inhibitors” (Ariad Pharmaceuticals, Inc., priority 2016, dated 2023)

How the values were obtained:
Experiment in all cases: c-Kit assay: Ba/F3 KIT mutant cell viability (Cell Titer-Glo, 72 hours)
Format in all cases: cell-based
Conditions in all cases: viability after 72 hours
BAF3 FL KIT EX11DEL = biological target: T1, BAF3 FL KIT EX11DEL (Homo sapiens, UniProt P10721, cells depend on it, form not given)
T1 construct: BAF3 FL KIT EX11DEL
Method: (§1) Generation of DBa/F3 KIT Mutant Engineered Cell Lines
(§2) KIT cDNAs were synthesized by GenScript and cloned into the pLVX-IRES-Puro vector (Clontech). Viral particles were produced by transfecting pLVX-IRES-puro vectors containing KIT mutant genes into HEK293 cells (Invitrogen) using the Trans-Lentiviral ORF Packaging Kit (Thermo Scientific). 48 hours post-transfection, virus-containing supernatants were harvested and incubated for another 48-72 hours with parental Ba/F3 cells (DSMZ) in the presence of 10 ng/mL IL-3 (R&D Systems). Transduced Ba/F3 cells were then selected by IL-3 withdrawal and puromycin (0.5-1 μg/mL, Invitrogen).
(§3) Cell lines (e.g., EX11DEL, EX11DEL/D816H, EX11DEL/T670I, and EX11DEL/V654A) were plated into 384 well plates using RPMI 1640 supplemented with 10% FBS at densities that produced linear growth and incubated at 37° C. in 5% (v/v) CO2. Cells were treated with eight concentrations of compound over a 4-fold dilution (10 μM to 0.61 nM) and viability was assessed using Cell Titer-Glo assay (Promega) after 72 hours. Data were plotted as percent viability relative to vehicle-treated cells. Dose-responses curves were generated and used to calculate IC50 values.

[1] = biological target: T2, BAF3 FL KIT EX11DEL/D816H (Homo sapiens, UniProt P10721, D816H, cells depend on it, form not given)
T2 construct: BAF3 FL KIT EX11DEL/D816H
Method: as §1, §2, §3

[2] = biological target: T3, BAF3 FL KIT EX11DEL/T670I (Homo sapiens, UniProt P10721, T670I, cells depend on it, form not given)
T3 construct: BAF3 FL KIT EX11DEL/T670I
Method: as §1, §2, §3

[3] = biological target: T4, BAF3 FL KIT EX11DEL/V654A (Homo sapiens, UniProt P10721, V654A, cells depend on it, form not given)
T4 construct: BAF3 FL KIT EX11DEL/V654A
Method: as §1, §2, §3

T4 sequence (P10721 with tags, fused parts or gaps DEL557-558/V654A, form open): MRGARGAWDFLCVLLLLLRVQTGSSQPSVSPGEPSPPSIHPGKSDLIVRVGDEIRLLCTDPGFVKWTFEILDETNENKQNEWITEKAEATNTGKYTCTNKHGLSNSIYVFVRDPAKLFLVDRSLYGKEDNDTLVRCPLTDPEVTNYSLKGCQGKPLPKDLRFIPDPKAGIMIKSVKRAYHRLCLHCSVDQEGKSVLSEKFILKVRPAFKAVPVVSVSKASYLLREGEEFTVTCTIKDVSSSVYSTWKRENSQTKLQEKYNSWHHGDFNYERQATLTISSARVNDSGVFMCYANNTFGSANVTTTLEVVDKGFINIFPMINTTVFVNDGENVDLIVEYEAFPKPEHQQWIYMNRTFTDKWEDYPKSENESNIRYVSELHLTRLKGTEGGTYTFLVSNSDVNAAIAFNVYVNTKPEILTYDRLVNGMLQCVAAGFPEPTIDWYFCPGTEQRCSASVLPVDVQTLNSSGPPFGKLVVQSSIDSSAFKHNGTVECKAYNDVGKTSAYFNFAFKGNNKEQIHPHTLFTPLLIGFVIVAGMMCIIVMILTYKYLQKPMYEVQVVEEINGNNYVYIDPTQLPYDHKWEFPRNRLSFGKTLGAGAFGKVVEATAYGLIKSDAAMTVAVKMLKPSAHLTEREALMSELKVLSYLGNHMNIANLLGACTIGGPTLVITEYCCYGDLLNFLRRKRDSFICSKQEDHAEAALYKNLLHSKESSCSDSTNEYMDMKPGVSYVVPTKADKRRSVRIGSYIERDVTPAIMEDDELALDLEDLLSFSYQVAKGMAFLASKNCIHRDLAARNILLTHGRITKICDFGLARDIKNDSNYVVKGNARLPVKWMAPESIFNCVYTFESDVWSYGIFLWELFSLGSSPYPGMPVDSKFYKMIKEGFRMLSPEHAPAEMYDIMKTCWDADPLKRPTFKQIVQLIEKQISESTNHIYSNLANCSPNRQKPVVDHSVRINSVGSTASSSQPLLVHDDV
T1 sequence (P10721 with tags, fused parts or gaps DEL557-558): as the sequence (P10721 with tags, fused parts or gaps DEL557-558/V654A, form open) above, with A652V counted along it
T2 sequence (P10721 with tags, fused parts or gaps DEL557-558/D816H, form open): as the sequence (P10721 with tags, fused parts or gaps DEL557-558/V654A, form open) above, with A652V, D814H counted along it
T3 sequence (P10721 with tags, fused parts or gaps DEL557-558/T670I, form open): as the sequence (P10721 with tags, fused parts or gaps DEL557-558/V654A, form open) above, with A652V, T668I counted along it

## CC(=O)N1CCN(C(=O)Nc2ncc(C#Cc3cc(C(=O)Nc4cc(C(F)(F)F)ccn4)ccc3C)s2)CC1 [I-37, 4-acetyl-N-(5-((2-methyl-5-((4-(trifluoromethyl)pyridin-2-yl)carbamoyl)phenyl)ethynyl)thiazol-2-yl)piperazine-1-carboxamide]
BAF3 FL KIT EX11DEL
  GI50: < 10 nM
[1]
  GI50: < 10 nM
[2]
  GI50: < 10 nM
[3]
  GI50: < 10 nM

## NC(=O)Nc1ncc(C#Cc2ccc(F)c(C(=O)Nc3cc(C(F)(F)F)ccn3)c2)s1 [I-43, 2-fluoro-N-(4-(trifluoromethyl)pyridin-2-yl)-5-((2-ureidothiazol-5-yl)ethynyl)benzamide]
BAF3 FL KIT EX11DEL
  GI50: < 10 nM
[1]
  GI50: 100 to 10000 nM
[2]
  GI50: 100 to 10000 nM
[3]
  GI50: 100 to 10000 nM

## COCCN(C)C(=O)Nc1ncc(C#Cc2cc(NC(=O)c3cc(C(F)(F)F)ccn3)ccc2C)s1 [I-54, N-(3-((2-(3-(2-methoxyethyl)-3-methylureido)thiazol-5-yl)ethynyl)-4-methylphenyl)-4-(trifluoromethyl)picolinamide]
BAF3 FL KIT EX11DEL
  GI50: < 10 nM
[1]
  GI50: 10 to 50 nM
[2]
  GI50: 10 to 50 nM
[3]
  GI50: 10 to 50 nM

## Cc1ccc(C(=O)Nc2cc(C(F)(F)F)ccn2)cc1C#Cc1cnc(NC(=O)N2CCN(CCO)CC2)s1 [I-27, 4-(2-hydroxyethyl)-N-(5-((2-methyl-5-((4-(trifluoromethyl)pyridin-2-yl)carbamoyl)phenyl)ethynyl)thiazol-2-yl)piperazine-1-carboxamide]
BAF3 FL KIT EX11DEL
  GI50: < 10 nM
[1]
  GI50: 10 to 50 nM
[2]
  GI50: < 10 nM
[3]
  GI50: 10 to 50 nM

## Cc1ccc(C(=O)Nc2cc(C(F)(F)F)ccn2)cc1C#Cc1cnc(NC(=O)N2CCC(N(C)C)C2)s1 (stereo not drawn) [I-40, 3-(dimethylamino)-N-(5-((2-methyl-5-((4-(trifluoromethyl)pyridin-2-yl)carbamoyl)phenyl)ethynyl)thiazol-2-yl)pyrrolidine-1-carboxamide]
BAF3 FL KIT EX11DEL
  GI50: < 10 nM
[1]
  GI50: 10 to 50 nM
[2]
  GI50: < 10 nM
[3]
  GI50: 10 to 50 nM

## Cc1ccc(C(=O)Nc2cc(C(F)(F)F)ccn2)cc1C#Cc1cnc(NC(=O)NCCCN)s1 [I-36, 3-((2-(3-(3-aminopropyl)ureido)thiazol-5-yl)ethynyl)-4-methyl-N-(4-(trifluoromethyl)pyridin-2-yl)benzamide]
BAF3 FL KIT EX11DEL
  GI50: < 10 nM
[1]
  GI50: 10 to 50 nM
[2]
  GI50: 10 to 50 nM
[3]
  GI50: 10 to 50 nM

## Cc1ccc(C(=O)Nc2cc(C(F)(F)F)ccn2)cc1C#Cc1cnc(NC(=O)N2CCNCC2)s1 [I-30, N-(5-((2-methyl-5-((4-(trifluoromethyl)pyridin-2-yl)carbamoyl)phenyl)ethynyl)thiazol-2-yl)piperazine-1-carboxamide]
BAF3 FL KIT EX11DEL
  GI50: < 10 nM
[1]
  GI50: 10 to 50 nM
[2]
  GI50: 10 to 50 nM
[3]
  GI50: 10 to 50 nM

## Cc1ccc(C(=O)Nc2cc(C(F)(F)F)ccn2)cc1C#Cc1cnc(NC(=O)NCCCCN)s1 [I-31, 3-((2-(3-(4-aminobutyl)ureido)thiazol-5-yl)ethynyl)-4-methyl-N-(4-(trifluoromethyl)pyridin-2-yl)benzamide]
BAF3 FL KIT EX11DEL
  GI50: 10 to 50 nM
[1]
  GI50: 50 to 100 nM
[2]
  GI50: 10 to 50 nM
[3]
  GI50: 50 to 100 nM

## Cc1ccc(C(=O)Nc2cc(C(F)(F)F)ccn2)cc1C#Cc1cnc(NC(=O)NCCN(C)C)s1 [I-11, 3-((2-(3-(2-(dimethylamino)ethyl)ureido)thiazol-5-yl)ethynyl)-4-methyl-N-(4-(trifluoromethyl)pyridin-2-yl)benzamide]
BAF3 FL KIT EX11DEL
  GI50: < 10 nM
[1]
  GI50: 10 to 50 nM
[2]
  GI50: 10 to 50 nM
[3]
  GI50: 10 to 50 nM

## Cc1ccc(C(=O)Nc2cc(C(F)(F)F)ccn2)cc1C#Cc1cnc(NC(=O)N(C)CCN(C)C)s1 [I-9, 3-((2-(3-(2-(dimethylamino)ethyl)-3-methylureido)thiazol-5-yl)ethynyl)-4-methyl-N-(4-(trifluoromethyl)pyridin-2-yl)benzamide]
BAF3 FL KIT EX11DEL
  GI50: < 10 nM
[1]
  GI50: 10 to 50 nM
[2]
  GI50: < 10 nM
[3]
  GI50: 10 to 50 nM

## COCCN(C)C(=O)Nc1ncc(C#Cc2cccc(NC(=O)c3cc(C(F)(F)F)ccn3)c2)s1 [I-61, N-(3-((2-(3-(2-methoxyethyl)-3-methylureido)thiazol-5-yl)ethynyl)phenyl)-4-(trifluoromethyl)picolinamide]
BAF3 FL KIT EX11DEL
  GI50: < 10 nM
[1]
  GI50: 10 to 50 nM
[2]
  GI50: 10 to 50 nM
[3]
  GI50: 10 to 50 nM

## CCN(CC)CCN(C)C(=O)Nc1ncc(C#Cc2cc(NC(=O)c3cc(C(F)(F)F)ccn3)ccc2C)s1 [I-59, N-(3-((2-(3-(2-(diethylamino)ethyl)-3-methylureido)thiazol-5-yl)ethynyl)-4-methylphenyl)-4-(trifluoromethyl)picolinamide]
BAF3 FL KIT EX11DEL
  GI50: 10 to 50 nM
[1]
  GI50: 50 to 100 nM
[2]
  GI50: 100 to 10000 nM
[3]
  GI50: 100 to 10000 nM
